Legend:
Cytochrome P450 3A4 = Cytochrome P450 3A4 (Homo sapiens, UniProt P08684); assay: Inhibition of CYP3A4 in human liver microsomes using IPA as substrate preincubated for 10 mins followed by NADPH generating system addition and measured after 20 mins
[1] = Efflux ratio of apparent permeability across apical to basolateral to basolateral to apical membrane membrane in MDCK1 at 1 uM in presence of valspodar; format: ADME, cell-based, Canis lupus familiaris; conditions: dog, MDCK, with valspodar (concentration not stated)
MES-SA/Dx5 = assay: Cytotoxicity in human MES-SA/Dx5 cells assessed as reduction in cell viability at 1.28 uM incubated for 3 days by MTT assay relative to control; format: toxicity, cell-based; conditions: mes-sa/dx5, 72 h, time 3 day
MDR1 [2] = assay: Efflux ratio of apparent permeability across apical to basolateral to basolateral to apical membrane in MDCKII-MDR1 at 1 uM; format: ADME, cell-based, Canis lupus familiaris; conditions: dog, MDCK-MDR1
MDR1 [3] = assay: Efflux ratio of apparent permeability across apical to basolateral to basolateral to apical membrane membrane in MDCKII-MDR1at 1 uM in presence of valspodar; format: ADME, cell-based, Canis lupus familiaris; conditions: dog, MDCK-MDR1, with valspodar (concentration not stated)
MDR1 [4] = assay: Apparent permeability across basolateral side to apical side in MDCKII-MDR1 cells at 1 uM by LC/MS/MS analysis; format: ADME, cell-based, Canis lupus familiaris; conditions: dog, MDCK-MDR1
[5] = Efflux ratio of apparent permeability across apical to basolateral to basolateral to apical membrane membrane in MDCK1 at 1 uM; format: ADME, cell-based, Canis lupus familiaris; conditions: dog, MDCK
MDR1 [6] = assay: Apparent permeability across apical to basolateral side in MDCKII-MDR1 cells at 3 uM by LC/MS/MS analysis; format: ADME, cell-based, Canis lupus familiaris; conditions: dog, MDCK-MDR1
MDR1 [7] = assay: Apparent permeability across basolateral side to apical side in MDCKII-MDR1 cells at 3 uM by LC/MS/MS analysis; format: ADME, cell-based, Canis lupus familiaris; conditions: dog, MDCK-MDR1
[8] = Tmax in CD-1 mouse at 20 mg/kg, po 30 mins prior to 10 mg/kg, po docetaxel administration measured after 8 hrs by LC-MS/MS analysis; format: ADME, organism-based; conditions: in vivo, time 8.5 hrs
MDR1 [9] = assay: Efflux ratio of apparent permeability across apical to basolateral to basolateral to apical membrane membrane in MDCKII-MDR1at 3 uM in presence of valspodar; format: ADME, cell-based, Canis lupus familiaris; conditions: dog, MDCK-MDR1, with valspodar (concentration not stated)
[10] = Apparent permeability across apical to basolateral side in MDCK1 cells at 3 uM by LC/MS/MS analysis; format: ADME, cell-based, Canis lupus familiaris; conditions: dog, MDCK
[11] = Efflux ratio of apparent permeability across apical to basolateral to basolateral to apical membrane membrane in MDCK1 at 3 uM in presence of valspodar; format: ADME, cell-based, Canis lupus familiaris; conditions: dog, MDCK, with valspodar (concentration not stated)
MDR1 [12] = assay: Efflux ratio of apparent permeability across apical to basolateral to basolateral to apical membrane membrane in MDCKII-MDR1 at 3 uM; format: ADME, cell-based, Canis lupus familiaris; conditions: dog, MDCK-MDR1
[13] = Cmax in CD-1 mouse at 20 mg/kg, po by LC-MS/MS analysis; format: ADME, organism-based; parameters: route oral, dose 20 mg/kg; conditions: in vivo
[14] = Half life in CD-1 mouse at 20 mg/kg, po 30 mins prior to 10 mg/kg, po docetaxel administration measured after 8 hrs by LC-MS/MS analysis; format: ADME, organism-based; conditions: in vivo, time 8.5 hrs
[15] = Efflux ratio of apparent permeability across apical to basolateral to basolateral to apical membrane membrane in MDCK1 at 3 uM; format: ADME, cell-based, Canis lupus familiaris; conditions: dog, mdck1, 3 µM
[16] = AUC (0 to t) in CD-1 mouse at 20 mg/kg, po 30 mins prior to 10 mg/kg, po docetaxel administration measured after 8 hrs by LC-MS/MS analysis; format: ADME, organism-based; parameters: route oral, dose 20 mg/kg, time 8.5 hrs; conditions: in vivo
[17] = Apparent permeability across basolateral side to apical side in MDCK1 cells at 3 uM by LC/MS/MS analysis; format: ADME, cell-based, Canis lupus familiaris; conditions: dog, MDCK
[18] = Cmax in CD-1 mouse at 20 mg/kg, po 30 mins prior to 10 mg/kg, po docetaxel administration measured after 8 hrs by LC-MS/MS analysis; format: ADME, organism-based; parameters: route oral, time 8.5 hrs, dose 20 mg/kg; conditions: in vivo

Cytochrome P450 3A4, sequence (P08684 whole entry): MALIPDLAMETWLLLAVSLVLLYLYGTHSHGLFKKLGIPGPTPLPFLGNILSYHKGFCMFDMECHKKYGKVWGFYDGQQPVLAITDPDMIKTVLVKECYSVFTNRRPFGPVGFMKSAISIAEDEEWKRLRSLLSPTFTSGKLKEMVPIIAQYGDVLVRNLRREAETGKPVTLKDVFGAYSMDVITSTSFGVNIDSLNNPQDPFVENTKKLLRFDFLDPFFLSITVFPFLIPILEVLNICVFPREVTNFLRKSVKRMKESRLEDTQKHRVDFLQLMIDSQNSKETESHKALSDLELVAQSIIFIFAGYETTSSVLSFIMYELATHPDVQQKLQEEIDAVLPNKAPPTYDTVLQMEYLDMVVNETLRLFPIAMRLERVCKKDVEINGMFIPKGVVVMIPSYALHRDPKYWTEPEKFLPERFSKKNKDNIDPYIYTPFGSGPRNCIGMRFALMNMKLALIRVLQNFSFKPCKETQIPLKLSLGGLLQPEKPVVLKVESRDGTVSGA

IC50 (Cytochrome P450 3A4) | SMILES | Activity (MES-SA/Dx5) | further results
> 9000 nM | COc1cc2c(cc1OC)CN(CCc1ccc(-n3nnc(-c4cc(OC)c(OC)cc4NC(=O)c4cc(=O)c5ccccc5o4)n3)cc1)CC2 | 6% | efflux ratio at 1 µM [1]: 1.36; efflux ratio at 1 µM (MDR1 [2]): 5.74; efflux ratio at 1 µM (MDR1 [3]): 1.73; Papp B→A at 1 µM (MDR1 [4]): 0.0049 ×10⁻⁶ cm/s; efflux ratio at 1 µM [5]: 1.83
726 nM | COc1cc2c(cc1OC)CN(CCc1ccc(-n3nnc(-c4cc(OCCc5cccnc5)ccc4NC(=O)c4cc(=O)c5ccccc5o4)n3)cc1)CC2 | 1% | –
> 9000 nM | COc1cc2c(cc1OC)CN(CCc1ccc(-n3nnc(-c4cc(OC)c(OC)cc4NC(=O)c4ccc(-c5cccnc5)cc4)n3)cc1)CC2 | 0% | –
> 9000 nM | COc1cc2c(cc1OC)CN(CCc1ccc(-n3nnc(-c4cc(Oc5ccncc5)ccc4NC(=O)c4cc(=O)c5ccccc5o4)n3)cc1)CC2 | 9% | –
> 9000 nM | COc1cc2c(cc1OC)CN(CCc1ccc(-n3nnc(-c4cc(OCc5cccnc5)c(OC)cc4NC(=O)c4cc(=O)c5ccccc5o4)n3)cc1)CC2 | 36% | –
> 9000 nM | COc1cc2c(cc1OC)CN(CCc1ccc(-n3nnc(-c4cc(OC)c(OC)cc4NC(=O)c4cc(=O)c5cc(-c6ccncc6)ccc5o4)n3)cc1)CC2 | 1% | –
1050 nM | COc1cc(NC(=O)c2cc(=O)c3ccccc3o2)c(-c2nnn(-c3ccc(CCN4CCc5ccncc5C4)cc3)n2)cc1OC | 1% | –
> 9000 nM | COc1cc2c(cc1OC)CN(CCc1ccc(-n3nnc(-c4cc(OCc5ccncc5)ccc4NC(=O)c4cc(=O)c5ccccc5o4)n3)cc1)CC2 | 33% | –
> 9000 nM | COc1cc2c(cc1OC)CN(CCc1ccc(-n3nnc(-c4cc(OC)c(OC)cc4NC(=O)c4cc(=O)c5cc(Br)ccc5o4)n3)cc1)CC2 | 30% | –
> 9000 nM | COc1cc2c(cc1OC)CN(CCc1ccc(-n3nnc(-c4cc(OCc5cccnc5)ccc4NC(=O)c4cc(=O)c5ccccc5o4)n3)cc1)CC2 | 3% | –
2040 nM | COc1cc(NC(=O)c2cc(=O)c3ccccc3o2)c(-c2nnn(-c3ccc(CCN4CCn5cncc5C4)cc3)n2)cc1OCc1ccccc1 | 13% | Papp A→B at 3 µM (MDR1 [6]): < 0.02 ×10⁻⁶ cm/s; Papp B→A at 3 µM (MDR1 [7]): < 0.02 ×10⁻⁶ cm/s
3340 nM | COc1cc2c(cc1OC)CN(CCc1ccc(-n3nnc(-c4cc(OC)c(OC)cc4NC(=O)c4cc(=O)c5cc(-n6ccnc6)ccc5o4)n3)cc1)CC2 | 6% | –
1070 nM | COc1cc(NC(=O)c2cc(=O)c3ccccc3o2)c(-c2nnn(-c3ccc(CCN4CCc5cnccc5C4)cc3)n2)cc1OC | 1% | Papp A→B at 3 µM (MDR1 [6]): < 0.02 ×10⁻⁶ cm/s; Papp B→A at 3 µM (MDR1 [7]): < 0.02 ×10⁻⁶ cm/s
516 nM | COc1cc2c(cc1OC)CN(CCc1ccc(-n3nnc(-c4cc(OC)c(OC)cc4NC(=O)c4ccc(-n5ccnc5)cc4)n3)cc1)CC2 | 5% | –
397 nM | COc1cc(NC(=O)c2cc(=O)c3ccccc3o2)c(-c2nnn(-c3ccc(CCN4CCc5ccc(-n6ccnc6)cc5C4)cc3)n2)cc1OC | 1% | –
1470 nM | COc1cc2c(cc1OC)CN(CCc1ccc(-n3nnc(-c4cc(Oc5cccnc5)ccc4NC(=O)c4cc(=O)c5ccccc5o4)n3)cc1)CC2 | 2% | Tmax [8]: 0.5 h; Papp A→B at 3 µM (MDR1 [6]): 0.0072 ×10⁻⁶ cm/s; Papp B→A at 3 µM (MDR1 [7]): 0.002 ×10⁻⁶ cm/s; efflux ratio at 3 µM (MDR1 [9]): 0.093; Papp A→B at 3 µM [10]: 0.0093 ×10⁻⁶ cm/s; efflux ratio at 3 µM [11]: 0.085; efflux ratio at 3 µM (MDR1 [12]): 0.277; Cmax [13]: 3.4 nM; half-life [14]: 6.02 h; Ratio [15]: < 0.22; AUC(0-t) at 8.5 h [16]: 11.7 ng·h/mL; Papp B→A at 3 µM [17]: < 0.002 ×10⁻⁶ cm/s; Cmax [18]: 2.46 ng/mL
851 nM | COc1cc(NC(=O)c2cnc3ccccc3c2)c(-c2nnn(-c3ccc(CCN4CCc5cnccc5C4)cc3)n2)cc1OCc1ccccc1 | 3% | –
1240 nM | COc1cc(NC(=O)c2cc(=O)c3ccccc3o2)c(-c2nnn(-c3ccc(CCN4CCc5cnccc5C4)cc3)n2)cc1OCc1ccccc1 | 3% | –
149 nM | COc1cc(NC(=O)c2cc(=O)c3ccccc3o2)c(-c2nnn(-c3ccc(CCN4CCn5cncc5C4)cc3)n2)cc1OC | 6% | –
> 9000 nM | COc1cc2c(cc1OC)CN(CCc1ccc(-n3nnc(-c4cc(OCc5ccccc5)c(OC)cc4NC(=O)c4cc(=O)c5ccccc5o4)n3)cc1)CC2 | 30% | –
> 9000 nM | COc1cc2c(cc1OC)CN(CCc1ccc(-n3nnc(-c4cc(OC)c(OC)cc4NC(=O)c4ccc(-c5ccncc5)cc4)n3)cc1)CC2 | 11% | –
305 nM | COc1cc(NC(=O)c2cc(=O)c3ccccc3o2)c(-c2nnn(-c3ccc(CCN4CCc5cc(-n6ccnc6)ccc5C4)cc3)n2)cc1OC | 10% | –
– | CC(=O)N1CCN(c2ccc(OCC3COC(Cn4ccnc4)(c4ccc(Cl)cc4Cl)O3)cc2)CC1 (configuration not stated) [KETOCONAZOLE] | 39% | –

Source: ChEMBL document CHEMBL5038632, “Discovery and Characterization of Potent Dual P-Glycoprotein and CYP3A4 Inhibitors: Design, Synthesis, Cryo-EM Analysis, and Biological Evaluations” (J Med Chem, 2022)
